Measured values: patent US20240269489A1, “TREATMENT OF THE CENTRAL NERVOUS SYSTEM” (ACT Therapeutics Ltd, priority 2021, published 2024)

Test system: subcutaneous prostate cancer model (PC3)
Test: Tumour specific uptake of Evans Blue after ACT, variable Enhancement MI
Type: in vivo, mice
Settings: cluster composition 2 mL/kg i.v.; Enhancement 0.5 MHz, MI 0, 0.1, 0.2, 0.3, 0.4; tumours excised 30 min after treatment
Method: To investigate the effect of MI variance of the US Enhancement field, tumour specific uptake of Evans Blue (EB, fluorescent dye) has been investigated in a subcutaneous prostate cancer model (PC3) in mice. Five groups with Enhancement insonation MIs of 0, 0.1, 0.2, 0.3 and 0.4 were investigated (N=3 animals per group). […] 30 min after treatment, the tumors were excised and the amount of EB was measured by spectrophotometry at 620 nm.

Cc1cc(-c2ccc(/N=N/c3ccc4c(S(=O)(=O)O)cc(S(=O)(=O)O)c(N)c4c3O)c(C)c2)ccc1/N=N/c1ccc2c(S(=O)(=O)O)cc(S(=O)(=O)O)c(N)c2c1O [Evans Blue]
tissue uptake of Evans Blue as a function of Enhancement MI: increases from no US (MI=0) to MI=0.1 and further with MI=0.2, but then drops again with MI=0.3
